Biological target: influenza PA endonuclease (PAN) (Influenza A virus, UniProt C3W5S0, DEL52-63/E64G)
Type: biochemical, influenza A (A/California/04/2009) H1N1

Row | SMILES | Change in activity with presence or absence of excess metal ions
1 | Cc1cc(=O)c(O)c(C(=O)O)o1 [Compound 1, 3-Hydroxy-6-methyl-4-oxo-4H-pyran-2-carboxylic acid] | no change
2 | Cc1cc(=O)c(O)c(C(=O)O)[nH]1 [Compound 17, 3-Hydroxy-6-methyl-4-oxo-1,4-dihydropyridine-2-carboxylic acid] | no change
